We go through one compound from patent US20140050670A1, “MULTIFUNCTIONAL NANOPARTICLES” (THE UNIVERSITY OF WESTERN AUSTRALIA, priority 2010, published 2014).

Structures are written as SMILES.

Series [1] concerns PC12 cells. Nature of the series: Intracellular calcium quantification after glutamate challenge (Fura-2). To be noted: glutamate 10 mM, 24 hr; nanospheres 25 μg mL^−1, free lomerizine 1 μM; relative to ENP; dihydrochloride. Format: cell-based, rat. The source says:
The pH in early endosomes is mildly acidic and falls below 5 as endosomes mature, so release of lomerizine from nanospheres could be triggered under these conditions. Here, we administered lomerizine to PC12 cells using nanospheres, and measured intracellular calcium concentrations after glutamate challenge to see if intracellular release of lomerizine could be employed for neuroprotection. PC12 cells express both N- and L-type VGCCs, but not T-type channels, and in undifferentiated PC12 cells, glutamate exposure (1-10 mm) over 24 hr causes oxidative stress and increased [Ca^2+]i.
Cells receiving nanosphere treatments were incubated with nanospheres containing lomerizine, with or without modification with PEI (LNP+PEI and LNP−PEI respectively), or nanospheres containing no lomerizine but with PEI modification (ENP). […]
For experiments, cells were seeded in 24-well plates containing 10 mm glass coverslips coated with poly(l-lysine) at a cell density of 5.0×10^4 mL^−1. […] After a further 24 hr, [Ca^2+]i was quantified as follows. […] Fluorescent data were measured on a Hamamatsu Orca ER digital camera attached to an inverted Nikon TE2000-U microscope, and analysed using Metamorph v6.3. […] [Ca^2+]i was calculated according to the equation: […]
Background: Calcium flux is commonly read through the fluorescence of an indicator in the cells.

For series [2] the following is noted: rats, 24 hr after oral administration; cited from earlier work.
Series [3] concerns L-, T- and N-type Ca^2+ channels. The note with it: cited from earlier work.
In series [4] the test system is NMDA, kainate or AMPA binding sites. To be noted: cited from earlier work.
For series [5] the following is noted: humans; cited from earlier work.

As to `COc1ccc(CN2CCN(C(c3ccc(F)cc3)c3ccc(F)cc3)CC2)c(OC)c1OC.Cl.Cl` [Lomerizine, 1-[bis(4-fluorophenyl)methyl]-4-(2,3,4-trimethoxybenzyl)piperazine dihydrochloride], the “intracellular calcium [Ca^2+]i after glutamate” value in series [1] was “significant (p≦0.001) decrease”. In series [2], the “dose excreted in the feces” value is 51.7% and the “dose excreted in urine” value is recorded as 4.1%. For the same compound, the “calcium channel blockade selectivity” value in series [3] is “selectively blocks L- and T-type Ca^2+ channels, but not N-type channels”. Moreover, the “affinity for NMDA, kainate or AMPA binding sites” value in series [4] was “no reported affinity”. For the same compound, the elimination half-life in series [5] was 108 h.
